In the OPERA property sets (Mansouri et al. 2018):

SMILES | melting point [°C] | boiling point [°C] | log10 vapour pressure (mmHg) | log10 Henry constant (atm·m³/mol) | log10 Koc (L/kg) | ready biodegradability | log10 Koa
CC(C)CCC[C@@H](C)[C@H]1CC[C@H]2[C@@H]3CC=C4C[C@@H](OC(=O)Cc5ccc(N(CCCl)CCCl)cc5)CC[C@]4(C)[C@H]3CC[C@]12C | 90 | – | – | – | – | – | –
CC(C)c1ccc(O)cc1 | 62.3 | 230 | -1.34 | – | – | – | –
C[C@H](O)CCc1ccccc1 | – | 239 | – | – | – | – | –
O=[N+]([O-])c1ccc(Oc2ccccc2)cc1 | 61 | 320 | – | – | – | – | –
CON(C)C(=O)Nc1ccc(Oc2ccc3c(c2)OC(C)(OC)CC3(C)C)cc1 (configuration not stated) | 102 | – | – | – | – | – | –
CCCCCCCCCCCCN | 28.3 | 259 | -2.09 | – | – | – | –
C[Si](C)(C)O[Si](O[Si](C)(C)C)(O[Si](C)(C)C)O[Si](C)(C)C | – | – | -1.17 | – | – | – | –
FC(F)C(F)(F)C(F)Cl (configuration not stated) | 85 | 28.1 | – | – | – | – | –
C=C(C)CCC(C)C | – | 112 | – | – | – | – | –
Cc1[nH]c(C)c(C)c1C | 111 | – | – | – | – | – | –
CCN(CCO)CCCC(C)Nc1ccnc2cc(Cl)ccc12 (configuration not stated) | 90 | – | – | – | – | – | –
CCO[Si](C)(C)C | – | 76 | 2.06 | – | – | – | –
OCCc1ccccc1 | -27 | 218 | -1.06 | -6.59 | 1.5 | readily biodegradable | –
Cl/C=C\Cl | -64.9 | 54.4 | – | -2.17 | – | – | 2.56
c1ccc2cnncc2c1 | 90.5 | 316 | – | – | – | – | –
Oc1ccc2ccccc2c1/N=N/c1ccc(/N=N\c2ccccc2)cc1 | 195 | – | – | – | – | – | –
O=c1[nH]c2ccccc2c(-c2ccccc2)c1O | 268 | – | – | – | – | – | –
Cc1nc(C)c(C)nc1C | 85 | 190 | – | – | – | – | –
O=C(CCNNC(=O)c1ccncc1)NCc1ccccc1 | 152 | – | – | – | – | – | –
O=C(c1ccccc1)c1ccc(C(F)(F)F)cc1 | 115 | – | – | – | – | – | –
O=C1Cc2ccccc2O1 | 50 | 249 | – | – | – | – | –
CCC(O)C(C)O (configuration not stated) | – | 188 | – | – | – | – | –
CC(F)(F)F | -111 | -47.5 | 3.98 | – | – | – | –

SMILES | melting point [°C] | boiling point [°C] | log10 vapour pressure (mmHg) | log10 Henry constant (atm·m³/mol) | log10 Koc (L/kg) | ready biodegradability | log10 Koa
FC(F)(F)C(F)(F)C(F)(F)C(F)(F)C(F)(F)C(F)(F)C(F)(F)C(F)(F)Br | – | 141 | – | – | – | – | –
C[C@@H]1CCC[C@H](C)C1 (racemic) | -82.8 | – | – | – | – | – | –
c1ccc(Nc2ccc3ccccc3c2)cc1 | 108 | 396 | – | – | – | not readily biodegradable | –
N#Cc1ccc2ccccc2n1 | 95 | – | – | – | – | – | –
O=C(O)CCCC(=O)c1ccccc1 | 127 | – | – | – | – | – | –
CC(C(=O)O)(c1ccccc1)c1ccccc1 | 176 | – | – | – | – | – | –
C/C=C\C | -122 | 2.25 | – | -0.643 | – | – | –
C=CCCCBr | – | 126 | – | – | – | – | –
CCOC(OCC)(OCC)OCC | – | 160 | – | – | – | – | –
Nc1cccc(N)c1 | 63.5 | 285 | -2.68 | – | – | not readily biodegradable | –
C=C(C)C(=O)OCC(CC)CCCC (configuration not stated) | – | – | – | – | – | readily biodegradable | –
O=CNC(Nc1ccc(Cl)c(Cl)c1)C(Cl)(Cl)Cl (configuration not stated) | 135 | – | – | – | – | – | –
COc1cc(C(C)=O)ccc1O | 115 | 297 | – | – | – | – | –
CC/C=C/C=C/C=O | 84.5 | – | – | – | – | – | –
CC(=O)c1ccccc1C | – | 214 | – | – | – | – | –
Clc1ccc2ccc(Cl)cc2c1 | – | – | – | – | – | – | 6.7
Nc1ncn([C@@H]2O[C@H](CO)[C@@H](O)[C@H]2O)c(=O)n1 | 229 | – | – | – | – | – | –
Sc1cccc(Cl)c1 | – | 206 | – | – | – | – | –
CC(=O)Oc1ccccc1 | -30 | 196 | -0.4 | – | – | – | –
CC(C)(N)Cc1ccccc1Cl | – | – | – | – | – | not readily biodegradable | –
CN(C)CCOCCN(C)C | – | – | – | – | – | not readily biodegradable | –
CCCS(=O)CCC | 22.5 | – | – | – | – | – | –
Oc1ccc(/C=C/c2cc(O)cc(O)c2)cc1 | 254 | – | – | – | – | – | –

SMILES | melting point [°C] | boiling point [°C] | log10 vapour pressure (mmHg) | log10 Henry constant (atm·m³/mol) | log10 Koc (L/kg) | ready biodegradability | log10 Koa
O=C(O)c1ccc2ccccc2c1 | 186 | – | -5.18 | – | – | readily biodegradable | –
C#CC(C)(C)NC(=O)c1cc(Cl)cc(Cl)c1 | 155 | – | -6.36 | – | 2.31 | – | –
CCCCCCCCCCCCCCC=O | 24.5 | – | – | – | – | – | –
CC(C)(C)c1cc(C(C)(C)C)c(O)c(C(C)(C)C)c1 | 131 | 278 | -3.18 | – | – | not readily biodegradable | –
NC(=O)Nc1ccc(Oc2ccccc2)cc1 | – | – | – | – | 2.56 | – | –
CCCCC(C)S (configuration not stated) | -147 | 142 | – | – | – | – | –
Clc1ccc(C(Cl)c2ccccc2)cc1 (configuration not stated) | – | – | – | – | – | not readily biodegradable | –
Cc1ccc(C)c(O)c1C | 58 | 226 | -1.46 | – | – | not readily biodegradable | –
CCC1(CC)C(=O)NC(=O)N(C)C1=O | 150 | – | – | – | – | – | –
O=C(O)[C@H]1O[C@@H](OCC(Cl)(Cl)Cl)[C@H](O)[C@@H](O)[C@@H]1O | 142 | – | – | – | – | – | –
CNC(=O)ON=C(C)SC | 78 | – | -5.27 | – | 1.3 | – | –
Nc1ccc(Sc2ccc([N+](=O)[O-])cc2)cc1 | 144 | – | – | – | – | – | –
O=S(=O)(O)C(F)(F)C(F)(F)C(F)(F)C(F)(F)C(F)(F)C(F)(F)F | – | 238 | – | – | – | – | –
COc1cc(C(=O)N2CCOCC2)cc(OC)c1OC | 121 | – | – | – | – | – | –
Cc1ccccc1I | – | 212 | -0.344 | – | – | – | –
OCCSCCCCCCCCCCSCCO | 69.5 | – | – | – | – | – | –
Fc1ccc(I)cc1 | -27 | 183 | – | – | – | – | –
COP(=S)(OC)Oc1cc(Cl)c(I)cc1Cl | 72.5 | – | -6.08 | – | – | – | –
CCCNC(=O)OCC | – | 192 | – | – | – | – | –
O[C@H](CCl)[C@H](O)CCl | 126 | – | – | – | – | – | –
CCC(=O)O | -20.7 | 141 | 0.548 | -6.35 | – | readily biodegradable | –
